# Reference: patent publication US4962112A, “7-(2-methyl-4-aminopyrrolidinyl)naphthryidine and quinoline compounds” (Abbott Laboratories, priority 1988, dated 1990)
# Legend:
# K. pneumoniae = test: In vitro antibacterial activity, agar dilution MIC; assay type: cell-based, Klebsiella pneumoniae; settings: ATCC8045, 18 h; KLEBSIELLA PNEUMONIAE ATCC 8045; read-out: MIC
# [1] = Oral pharmacokinetics, blood level by disk agar diffusion bioassay; assay type: in vivo, Mice; settings: for Blood Level of Compound: mice; for serum concentrations / blood levels (in words): versus analogs A and B at 100 mg/kg
# Experimental: Mice were administered the quantity of compound indicated orally, as a single dose. At the specified time intervals, blood was collected from groups of five mice. All samples were assayed by a disk agar diffusion bioassay procedure. Bacillus subtilis 6633 or Klebsiella pneumoniae 10032 were used as the assay organisms, and seek agar medium No. 1 (BBL Microbiology Systems; Cockeysville, MD) was the growth medium. The plates were incubated at 32° C for 18 h and read with an image analyzer (Optomax Inc.).
# [2] = tested on: STAPHYLOCOCCUS EPIDERMIDIS; test: In vitro antibacterial activity, agar dilution MIC; assay type: cell-based; settings: 18 h; STAPHYLOCOCCUS EPIDERMIDIS 3519
# [3] = Aqueous solubility in Ringer's buffer at pH 7.5 (HPLC); assay type: physicochemical
# Experimental: A known excess weight of the compound was shaken overnight with a known volume of Ringer's buffer (bicarbonate buffer containing sodium, potassium, calcium and magnesium ions, initially adjusted to pH 7.5). The contents were filtered, and the clear filtrate was analyzed after appropriate dilution using HPLC (UV absorbance detection).
# STREPTOCOCCUS BOVIS = test: In vitro antibacterial activity, agar dilution MIC; assay type: cell-based; settings: Streptococcus equinus, 18 h; STREPTOCOCCUS BOVIS A5196
# P. aeruginosa = test: In vitro antibacterial activity, agar dilution MIC; assay type: cell-based; settings: Pseudomonas aeruginosa, 18 h
# PSEUDOMONAS CEPACIA = test: In vitro antibacterial activity, agar dilution MIC; assay type: cell-based; settings: Burkholderia cepacia, 18 h; PSEUDOMONAS CEPACIA 296I
# ACINETOBACTER SP = test: In vitro antibacterial activity, agar dilution MIC; assay type: cell-based; settings: 18 h; ACINETOBACTER SP CMX 669
# S. agalactiae = test: In vitro antibacterial activity, agar dilution MIC; assay type: cell-based; settings: Streptococcus agalactiae, 18 h; STR[…] 508 (Table 2)
# EN[…] = test: In vitro antibacterial activity, agar dilution MIC; assay type: cell-based; settings: Enterococcus faecium, ATCC8043, 18 h; EN[…] ATCC 8043
# Experimental: (§1) The in vitro antibacterial activity of the test compound was determined by conventional agar dilution procedures. The organisms were grown overnight in brain-heart infusion (BHI) broth (Difco 0037-01-6) at 36° C. Twofold dilutions of the stock solution ([…]) of the test compound were made in BHI agar obtain a test concentration ranging from […]. The plate was inoculated with approximately 10^4 organisms. It was then incubated at 36° C. for 18 h. the minimal inhibitory concentration was the lowest concentration of the test compound that yielded no visible growth on the plate.
# M[…] = test: In vitro antibacterial activity, agar dilution MIC; assay type: cell-based; settings: Micrococcus luteus
# Experimental: as §1
# S. aureus = test: In vitro antibacterial activity, agar dilution MIC; assay type: cell-based; settings: Staphylococcus aureus, 18 h
# Experimental: as §1
# E. coli = test: In vitro antibacterial activity, agar dilution MIC; assay type: cell-based; settings: Escherichia coli, 18 h
# Experimental: as §1
# PROVIDENCIA STUARTII = test: In vitro antibacterial activity, agar dilution MIC; assay type: cell-based; settings: 18 h
# S. pyogenes = test: In vitro antibacterial activity, agar dilution MIC; assay type: cell-based; settings: Streptococcus pyogenes, 18 h
# [4] = compared with 2-unsubstituted aminopyrrolidine analogs
# [5] = ATCC6538P, STAPHYLOCOCCUS AUREUS ATCC 6538P
# [6] = STREPTOCOCCUS PYOGENES 930 CONST
SMILES,MIC (K. pneumoniae) [µg/mL],MIC [2] [µg/mL],MIC (STREPTOCOCCUS BOVIS) [µg/mL],MIC (P. aeruginosa; PSEUDOMONAS AERUGINOSA A5007) [µg/mL],MIC (P. aeruginosa; PSEUDOMONAS AERUGINOSA BMH10) [µg/mL],MIC (P. aeruginosa; PSEUDOMONAS AERUGINOSA K799/61) [µg/mL],MIC (P. aeruginosa; PSEUDOMONAS AERUGINOSA K799/WT) [µg/mL],MIC (PSEUDOMONAS CEPACIA) [µg/mL],MIC (ACINETOBACTER SP) [µg/mL],MIC (S. agalactiae) [µg/mL],MIC (EN[…]) [µg/mL],"MIC (M[…]; ATCC4698, 18 h, M[…] ATCC 4698) [µg/mL]","MIC (M[…]; ATCC9341, 18 h, M[…] ATCC 9341) [µg/mL]",MIC (S. aureus; STAPHYLOCOCCUS AUREUS 45) [µg/mL],MIC (S. aureus; STAPHYLOCOCCUS AUREUS 45RAR2) [µg/mL],MIC (S. aureus; STAPHYLOCOCCUS AUREUS A5177) [µg/mL],MIC (S. aureus; STAPHYLOCOCCUS AUREUS CMX 503A) [µg/mL],MIC (S. aureus; STAPHYLOCOCCUS AUREUS CMX 553) [µg/mL],MIC (S. aureus; STAPHYLOCOCCUS AUREUS CMX 6868) [µg/mL],MIC (S. aureus; [5]) [µg/mL],further results
C[C@H]1C[C@H](N)CN1c1cc2c(cc1F)c(=O)c(C(=O)O)cn2-c1ccc(F)cc1F [Example 6],0.02,0.2,0.2,3.1,0.78,0.02,0.39,12.5,0.1,0.1,0.1,0.1,0.2,0.1,0.1,0.2,0.1,0.1,0.05,0.02,"oral absorption properties (in words) [1, 4]: greatly improved oral absorption properties; Blood Level of Compound ([1]; oral 25 mg/kg, t = 0.5 h): 3700 ng/mL; Blood Level of Compound ([1]; oral 25 mg/kg, t = 1.0 h): 4300 ng/mL; Blood Level of Compound ([1]; oral 25 mg/kg, t = 2.0 h): 2800 ng/mL; Blood Level of Compound ([1]; oral 25 mg/kg, t = 3.0 h): 1100 ng/mL; Blood Level of Compound ([1]; oral 25 mg/kg, t = 6.0 h): 100 ng/mL; Blood Level of Compound ([1]; oral 25 mg/kg, t = 24.0 h): 0 ng/mL; serum concentrations / blood levels (in words) ([1]; oral 25 mg/kg): still achieve better blood; serum concentrations / blood levels (in words) ([1]; oral 25 mg/kg, listed as Compound 6): higher serum concentrations; AQUEOUS SOLUBILITY ([3]; at pH 7.5 in Ringer's buffer): 0.053 mg/mL; solubility properties (in words) [3, 4]: significantly improved aqueous solubility properties; MIC (E. coli; ESCHERICHIA COLI DC-2): 0.2 µg/mL; MIC (E. coli; ESCHERICHIA COLI H560): 0.2 µg/mL; MIC (E. coli; ESCHERICHIA COLI JUHL): 0.05 µg/mL; MIC (E. coli; ESCHERICHIA COLI KNK 437): 0.2 µg/mL; MIC (E. coli; ESCHERICHIA COLI SS): ≤ 0.002 µg/mL; MIC (PROVIDENCIA STUARTII): 1.56 µg/mL; MIC (S. pyogenes; [6]): 0.2 µg/mL; MIC (S. pyogenes; STREPTOCOCCUS PYOGENES EE561): 0.2 µg/mL"
"NC1CCN(c2cc3c(cc2F)c(=O)c(C(=O)O)cn3-c2ccc(F)cc2F)C1 (stereo not shown) [Example B, 7-(3-Amino-pyrrolidin-1-yl)-1-(2,4-difluorophenyl)-1,4-dihydro-6-fluoro--oxo-quinoline-3-carboxylic acid, reference compound]",0.01,0.1,0.39,0.2,0.1,0.05,0.2,6.2,0.05,0.2,0.2,0.78,0.39,0.1,0.1,0.05,0.05,0.05,0.05,0.02,"Blood Level of Compound ([1]; oral 100 mg/kg, t = 1.0 h): 500 ng/mL; Blood Level of Compound ([1]; oral 100 mg/kg, t = 2.0 h): 700 ng/mL; Blood Level of Compound ([1]; oral 100 mg/kg, t = 3.0 h): 900 ng/mL; Blood Level of Compound ([1]; oral 100 mg/kg, t = 6.0 h): 700 ng/mL; Blood Level of Compound ([1]; oral 100 mg/kg, t = 24.0 h): 0 ng/mL; solubility ([3]; at pH 7.5 in Ringer's buffer): 8 µg/mL; MIC (E. coli; ESCHERICHIA COLI DC-2): 0.2 µg/mL; MIC (E. coli; ESCHERICHIA COLI H560): 0.02 µg/mL; MIC (E. coli; ESCHERICHIA COLI JUHL): 0.02 µg/mL; MIC (E. coli; ESCHERICHIA COLI KNK 437): 0.2 µg/mL; MIC (E. coli; ESCHERICHIA COLI SS): 0.002 µg/mL; MIC (PROVIDENCIA STUARTII): 1.56 µg/mL; MIC (S. pyogenes; [6]): 0.1 µg/mL; MIC (S. pyogenes; STREPTOCOCCUS PYOGENES EE561): 0.2 µg/mL"
